Where a name gives a salt, the structure may show the parent alone.
Target: T1, human HSL (Homo sapiens, UniProt Q05469)
T1 construct: generate a full length human HSL ORF with a 3′-His6 tag; His6 (C); made in house; host or cells: High 5 insect cells (baculovirus, pFast-BAC)
T1 sequence (Q05469 1-1076): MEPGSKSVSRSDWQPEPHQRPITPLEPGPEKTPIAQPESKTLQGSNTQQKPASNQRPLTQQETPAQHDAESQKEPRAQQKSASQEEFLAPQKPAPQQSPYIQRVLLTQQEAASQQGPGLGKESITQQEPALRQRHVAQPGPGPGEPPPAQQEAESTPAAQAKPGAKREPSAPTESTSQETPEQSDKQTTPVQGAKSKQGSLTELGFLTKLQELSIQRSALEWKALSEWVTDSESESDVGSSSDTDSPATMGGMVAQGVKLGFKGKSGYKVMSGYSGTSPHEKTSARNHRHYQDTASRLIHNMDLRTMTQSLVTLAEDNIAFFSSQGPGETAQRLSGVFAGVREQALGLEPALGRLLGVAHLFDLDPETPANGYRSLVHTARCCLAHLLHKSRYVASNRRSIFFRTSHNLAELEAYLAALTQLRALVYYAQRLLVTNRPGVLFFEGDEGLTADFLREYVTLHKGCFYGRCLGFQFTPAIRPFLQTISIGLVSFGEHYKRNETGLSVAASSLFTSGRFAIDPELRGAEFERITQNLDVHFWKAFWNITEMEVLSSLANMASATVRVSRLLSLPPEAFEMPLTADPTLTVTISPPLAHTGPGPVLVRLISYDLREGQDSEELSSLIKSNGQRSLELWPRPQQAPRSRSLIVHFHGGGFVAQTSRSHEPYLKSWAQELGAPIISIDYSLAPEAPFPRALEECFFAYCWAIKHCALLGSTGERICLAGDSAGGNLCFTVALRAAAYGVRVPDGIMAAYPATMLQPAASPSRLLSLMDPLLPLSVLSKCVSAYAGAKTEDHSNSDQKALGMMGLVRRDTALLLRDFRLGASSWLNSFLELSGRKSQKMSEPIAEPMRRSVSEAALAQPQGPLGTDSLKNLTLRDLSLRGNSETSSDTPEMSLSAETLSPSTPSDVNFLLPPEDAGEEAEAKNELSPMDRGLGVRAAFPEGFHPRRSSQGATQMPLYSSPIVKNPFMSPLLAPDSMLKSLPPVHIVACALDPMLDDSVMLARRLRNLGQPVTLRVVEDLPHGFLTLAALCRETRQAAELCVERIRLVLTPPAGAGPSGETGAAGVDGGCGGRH
Assay: Human Hormone-Sensitive Lipase (HSL) enzyme inhibition assay (colorimetric, DMPT substrate)
Assay type: biochemical
Details: read-out: HSL hum IC50
Experimental: Production of Human Full Length Hormone Sensitive Lipase-His^6
1) Cloning: cDNA was prepared from commercial human brain polyA+ RNA and used as a template in overlapping PCR to generate a full length human HSL ORF with a 3′-His6 tag. This full length insert was cloned into the pFast-BAC vector and the DNA-sequence of several single clones was verified. DNA from a correct full length clone with the 3′His6 tag was used to transform the E. coli strain DH10BAC. Resulting bacmid DNA was used to generate a titered baculovirus stock for protein generation. The sequence of the encoded HSL conforms to Swissprot entry Q05469, with the additional C-terminal His6-tag.
2) Protein purification: Culture: 5.5 L, High 5 cells expressing human full length HSL-His^6, 48 hr., containing 25 μM E-64. Cell count: […], 90% viable.
Cells were thawed. On ice, cells were suspended in Base Buffer containing 10% glycerol, 25 mM Tris-Cl, 300 mM NaCl, 10 mM imidazole, 10 mM 2-mercaptoethanol, 2 μg pepstatin/ml, 2 μg leupeptin/ml, 2 μg antipain/ml, pH 8.0 at 4° C. in a final volume of 475 ml with 3.75×10^7 cells/ml. […] was done at 3×30 sec., Lubrol PX was added to 0.2% final concentration followed by stirring for 15 min. at 4° C. and centrifugation at 25 k×g, 60 min., 4° C. Soluble proteins were mixed with 60 ml of pre-washed and equilibrated Ni-NTA Agarose (Qiagen 30210) followed by tumbling end-over-end, 45 min., 4° C., centrifugation 1000 rpm 5 min and letting resin settle 5 min. Supernatant was removed, the resin washed in the centrifuge vessel using 5 volumes of Base Buffer containing 0.2% Lubrol PX. Centrifugation was done again, then the supernatant discarded. The resin was poured onto a 0.8 μm membrane in a disposable filter unit (Nalge 450-0080), and washed with 5 volumes of Base Buffer containing 0.2% Lubrol PX. It was then washed with 30 volumes of Base Buffer containing 60 mM imidazole pH 7.5 at 4° C. The protein was eluted with 5 volumes of 25 mM Tris-Cl, 300 mM NaCl, 200 mM imidazole, 10 mM 2-mercaptoethanol, pH 7.5 at 4° C. by tumbling resin with buffer end-over-end, 30 min., 4° C. The resin was captured on a 0.2 μm membrane disposable filter unit (Millipore SCGP U02 RE) and the elute collected in the reservoir. The elute was concentrated using a 30 k MWCO centrifugal filter device (Sartorius Vivascience Vivacell 100, VC1022), to 20 ml. It was then dialyzed overnight at 4° C., two times against 2 L of 10% glycerol, 25 mM Tris-Cl, 300 mM NaCl, 0.2 mM EDTA, 0.2 mM DTT, pH 7.5 at 4° C. The protein was filtered using a 0.22 μm disposable filter unit (Millipore SCGP00525). The protein concentration was calculated from absorbance at 280 nm, using 280=0.67 cm-1 mg-1. Yield was 235 mg, total. The protein was stored at −80° C. Human Hormone-Sensitive Lipase (HSL) enzyme inhibition assay:
HSL enzyme activity was measured by a colorimetric assay using 2,3-dimercapto-1-propanol tributyrate (Aldrich, St. Louis, Mo.) as a substrate. Typically, 1.5 mM 2,3-dimercapto-1-propanol tributyrate (DMPT) in 100 mM MOPS, pH 7.2, 0.2 mg/ml fatty acid-free BSA was prepared by sonication at 4° C. to homogenous suspension. Test compounds (2 mM stock in DMSO) were diluted 3 fold in series in DMSO. Compound solutions were diluted 24 fold in 1.5 mM DMPT containing solution and 18 ul per well was added to 384-well microplates (Corning Costar). Twelve microliters per well of human HSL (15 ug/ml) was added and the reaction mixture was incubated at 37° C. for 20 minutes. Six microliters of 12 mM dithio-bis-(2-nitrobenzoic acid) (DTNB) in DMSO plus 1.2% SDS and 0.6% Triton X-100 were added and the mixture was incubated at room temperature for 15 minutes. Product production was monitored by reading absorbance at 405 nm on an Envision Reader (PerkinElmer Life and Analytical Sciences, Shelton, Conn.).

| IC50 [nM] | Compound |
| --- | --- |
| 320 | CC(C)c1ccc(NC(=O)C2(N)CCN(C(=O)OCc3ccccc3)CC2)cc1 [Example 82, 4-Amino-4-(4-isopropyl-phenylcarbamoyl)-piperidine-1-carboxylic acid benzyl ester; hydrochloride] |
| 240 | CCc1ccc(NC(=O)C2(N)CCN(S(=O)(=O)c3c(Cl)cccc3Cl)CC2)cc1 [Example 150, 4-Amino-1-(2,6-dichloro-benzenesulfonyl)-piperidine-4-carboxylic acid (4-ethyl-phenyl)-amide] |
| 950 | O=C(Nc1ccc(F)cc1)N1CCC(O)(C(=O)Nc2ccc(OC(F)(F)F)cc2)CC1 [Example 52, 4-Hydroxy-piperidine-1,4-dicarboxylic acid 1-[(4-fluoro-phenyl)-amide] 4-[(4-trifluoromethoxy-phenyl)-amide]] |
| 110 | CCc1ccc(NC(=O)C2(N)CCN(S(=O)(=O)c3ccc(CC)cc3)CC2)cc1 [Example 140, 4-Amino-1-(4-ethyl-benzenesulfonyl)-piperidine-4-carboxylic acid (4-ethyl-phenyl)-amide] |
| 80 | CC(C)c1ccc(NC(=O)C2(N)CCN(Cc3ccccc3OC(F)(F)F)CC2)cc1 [Example 113, 4-Amino-1-(2-trifluoromethoxy-benzyl)-piperidine-4-carboxylic acid (4-isopropyl-phenyl)-amide; hydrochloride] |
| 430 | CCc1ccc(NC(=O)C2(N)CCN(S(=O)(=O)c3ccc(C(F)(F)F)cc3Cl)CC2)cc1 [Example 147, 4-Amino-1-(2-chloro-4-trifluoromethyl-benzenesulfonyl)-piperidine-4-carboxylic acid (4-ethyl-phenyl)-amide] |
| 130 | CCc1ccc(NC(=O)C2(N)CCN(S(=O)(=O)c3ccccc3C(F)(F)F)CC2)cc1 [Example 145, 4-Amino-1-(2-trifluoromethyl-benzenesulfonyl)-piperidine-4-carboxylic acid (4-ethyl-phenyl)-amide] |
| 40 | CC(C)c1ccc(NC(=O)C2(N)CCN(S(=O)(=O)c3ccccc3F)CC2)cc1 [Example 118, 4-Amino-1-(2-fluoro-benzenesulfonyl)-piperidine-4-carboxylic acid (4-isopropyl-phenyl)-amide] |
| 90 | CC(C)c1ccc(NC(=O)C2(O)CCN(S(=O)(=O)c3ccccc3Cl)CC2)cc1 [Example 7, 1-(2-Chloro-benzenesulfonyl)-4-hydroxy-piperidine-4-carboxylic acid (4-isopropyl-phenyl)-amide] |
| 190 | NC1(C(=O)Nc2ccc(Cl)cc2)CCN(S(=O)(=O)c2ccccc2Cl)CC1 [Example 95, 4-Amino-1-(2-chloro-benzenesulfonyl)-piperidine-4-carboxylic acid (4-chloro-phenyl)-amide] |
| 140 | CC(C)(C)c1ccc(NC(=O)C2(N)CCN(C(=O)Nc3ccc(OC(F)(F)F)cc3)CC2)cc1 [Example 86, 4-Amino-piperidine-1,4-dicarboxylic acid 4-[(4-tert-butyl-phenyl)-amide]1-[(4-trifluoromethoxy-phenyl)-amide]; hydrochloride] |
| 490 | CC(C)(C)c1ccc(NC(=O)C2(O)CCN(C(=O)c3ccc(F)cc3F)CC2)cc1 [Example 41, 1-(2,4-Difluoro-benzoyl)-4-hydroxy-piperidine-4-carboxylic acid (4-tert-butyl-phenyl)-amide] |
| 130 | CC(C)(C)c1ccc(NC(=O)N2CCC(N)(C(=O)Nc3ccc(C(C)(C)C)cc3)CC2)cc1 [Example 90, 4-Amino-piperidine-1,4-dicarboxylic acid bis-[(4-tert-butyl-phenyl)-amide]; hydrochloride] |
| 80 | CC(C)c1ccc(NC(=O)C2(N)CCN(Cc3ccccc3F)CC2)cc1 [Example 109, 4-Amino-1-(2-fluoro-benzyl)-piperidine-4-carboxylic acid (4-isopropyl-phenyl)-amide; hydrochloride] |
| 40 | CN(C(=O)C1(O)CCN(Cc2ccccc2Cl)CC1)c1ccc(OC(F)(F)F)cc1 [Example 71, 1-(2-Chloro-benzyl)-4-hydroxy-piperidine-4-carboxylic acid methyl-(4-trifluoromethoxy-phenyl)-amide] |
| 190 | CC(C)Oc1ccc(NC(=O)C2(O)CCN(S(=O)(=O)c3ccccc3Cl)CC2)cc1 [Example 13, 1-(2-Chloro-benzenesulfonyl)-4-hydroxy-piperidine-4-carboxylic acid (4-isopropoxy-phenyl)-amide] |
| 660 | COc1ccc(OC)c(NC(=O)N2CCC(O)(C(=O)Nc3ccc(C(C)(C)C)cc3)CC2)c1 [Example 49, 4-Hydroxy-piperidine-1,4-dicarboxylic acid 4-[(4-tert-butyl-phenyl)-amide] 1-[(2,5-dimethoxy-phenyl)-amide]] |
| 480 | CC(C)CCC(=O)N1CCC(N)(C(=O)Nc2ccc(C(C)C)cc2)CC1 [Example 129, 4-Amino-1-(4-methyl-pentanoyl)-piperidine-4-carboxylic acid (4-isopropyl-phenyl)-amide] |
| 490 | CC(C)c1ccc(NC(=O)C2(N)CCN(C(=O)c3ccc(F)cc3)CC2)cc1 [Example 127, 4-Amino-1-(4-fluoro-benzoyl)-piperidine-4-carboxylic acid (4-isopropyl-phenyl)-amide] |
| 210 | CC(C)c1ccc(NC(=O)C2(O)CCN(C(=O)Nc3ccc(C(F)(F)F)cc3)CC2)cc1 [Example 6, 4-Hydroxy-piperidine-1,4-dicarboxylic acid 4-[(4-isopropyl-phenyl)-amide] 1-[(4-trifluoromethyl-phenyl)-amide]] |
